In US20140155384A1, “COMPOUNDS AND METHODS OF TREATING DIABETES” (Medivation Technologies, Inc., priority 2011, published 2014):

Experiments:
[1] = target: T1, rat adrenergic α1B receptor (Rattus norvegicus, UniProt P15823); test: Radioligand binding, adrenergic α1B receptor ([3H]Prazosin); conditions: 0.1 μM compound, Wistar rat liver, read-out: Percentage inhibition of ligand binding, Adrenergic α1B
T1 construct: rat adrenergic α1B receptor obtained from Wistar Rat liver; from tissue; host or cells: Wistar rat liver
T1 sequence (P15823 1-515): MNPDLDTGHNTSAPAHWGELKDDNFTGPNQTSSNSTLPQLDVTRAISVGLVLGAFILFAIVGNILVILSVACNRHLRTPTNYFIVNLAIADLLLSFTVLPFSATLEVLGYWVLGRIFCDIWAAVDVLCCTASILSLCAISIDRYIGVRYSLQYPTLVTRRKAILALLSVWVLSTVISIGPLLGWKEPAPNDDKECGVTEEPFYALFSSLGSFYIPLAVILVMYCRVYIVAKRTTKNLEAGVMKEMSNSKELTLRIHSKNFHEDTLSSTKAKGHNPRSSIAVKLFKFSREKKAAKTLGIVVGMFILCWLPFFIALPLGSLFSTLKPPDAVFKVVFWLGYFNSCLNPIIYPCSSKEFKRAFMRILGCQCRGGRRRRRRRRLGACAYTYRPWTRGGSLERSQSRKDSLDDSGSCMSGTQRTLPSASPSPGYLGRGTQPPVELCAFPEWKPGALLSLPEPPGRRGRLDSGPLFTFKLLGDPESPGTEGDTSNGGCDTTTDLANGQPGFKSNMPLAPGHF
Procedure: To evaluate in radioligand binding assays the activity of compounds, rat adrenergic α1B receptor obtained from Wistar Rat liver (Garcia-S' ainz, J. et al, Biochem. Biophys. Res. Commun. 186:760, 1992; Michel, A. et al, Br. J. Pharmacol. 98:883, 1989) in a modified Tris-HCl buffer (50 mM Tris-HCl buffer, pH 7.4, 0.5 mM EDTA) was used. Compounds were incubated with 0.25 nM [^3H]Prazosin for 60 min at […]. Non-specific binding was estimated in the presence of 10 μM phentolamine. Receptor proteins were filtered and washed, the filters were then counted to determine [^3H]Prazosin specifically bound. Compounds were screened at 1 μM or lower, using 1% DMSO as vehicle. Compounds were tested in this biochemical assay and percent inhibition of specific binding was determined. Biochemical assay results are presented as the percent inhibition of specific binding in Table 2.

[2] = target: T2, human recombinant adrenergic α1D receptor (Homo sapiens, UniProt P25100); test: Radioligand binding, adrenergic α1D receptor ([3H]Prazosin); conditions: 0.1 μM compound; HEK-293 cells; 0.6 nM [3H]Prazosin; read-out: Percentage inhibition of ligand binding, Adrenergic α1D
T2 construct: expressed in transfected cells; host or cells: HEK-293
T2 sequence (P25100 1-572): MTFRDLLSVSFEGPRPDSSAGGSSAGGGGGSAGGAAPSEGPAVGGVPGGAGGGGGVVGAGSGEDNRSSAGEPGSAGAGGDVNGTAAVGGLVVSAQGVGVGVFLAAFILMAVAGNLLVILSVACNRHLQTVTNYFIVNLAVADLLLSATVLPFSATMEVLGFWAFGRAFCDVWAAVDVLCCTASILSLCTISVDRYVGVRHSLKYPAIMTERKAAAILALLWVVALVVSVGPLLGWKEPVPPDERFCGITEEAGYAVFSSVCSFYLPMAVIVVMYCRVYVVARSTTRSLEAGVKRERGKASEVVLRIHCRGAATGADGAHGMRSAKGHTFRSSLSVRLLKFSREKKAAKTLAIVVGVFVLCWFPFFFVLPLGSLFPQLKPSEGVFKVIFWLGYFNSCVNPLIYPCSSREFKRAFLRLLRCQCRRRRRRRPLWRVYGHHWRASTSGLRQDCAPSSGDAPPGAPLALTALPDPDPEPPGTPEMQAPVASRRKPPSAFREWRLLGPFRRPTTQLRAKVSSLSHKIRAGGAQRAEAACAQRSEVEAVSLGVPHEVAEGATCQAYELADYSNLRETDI
Procedure: Compounds were incubated with 0.6 nM [3H]Prazosin for 60 min at 25° C. Non-specific binding was estimated in the presence of 10 μM phentolamine. Receptor proteins were filtered and washed, the filters were then counted to determine [3H]Prazosin specifically bound. Compounds were screened at 1 μM or lower, using 1% DMSO as vehicle. Biochemical assay results are presented as the percent inhibition of specific binding in Table 2.

[3] = target: T3, human recombinant adrenergic α2A receptor (Homo sapiens, UniProt P08913); test: Radioligand binding, adrenergic α2A receptor ([3H]MK-912); conditions: 0.1 μM compound; Sf9 cells; 1 nM [3H]MK-912; read-out: Percentage inhibition of ligand binding, Adrenergic α2A
T3 construct: expressed in transfected cells; host or cells: insect Sf9 cells
T3 sequence (P08913 1-465): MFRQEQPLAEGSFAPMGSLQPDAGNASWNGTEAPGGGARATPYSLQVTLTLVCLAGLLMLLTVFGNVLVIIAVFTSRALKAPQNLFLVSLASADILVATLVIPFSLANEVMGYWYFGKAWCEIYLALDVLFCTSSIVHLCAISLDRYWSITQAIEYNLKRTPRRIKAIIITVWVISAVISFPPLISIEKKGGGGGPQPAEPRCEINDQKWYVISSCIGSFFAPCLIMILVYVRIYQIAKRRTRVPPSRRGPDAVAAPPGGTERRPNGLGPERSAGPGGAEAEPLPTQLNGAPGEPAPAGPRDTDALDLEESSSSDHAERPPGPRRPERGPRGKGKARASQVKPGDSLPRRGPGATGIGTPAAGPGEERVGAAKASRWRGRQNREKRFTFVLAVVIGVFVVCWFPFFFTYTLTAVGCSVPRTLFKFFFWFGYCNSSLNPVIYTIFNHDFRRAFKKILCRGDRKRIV
Procedure: To evaluate in radioligand binding assays the activity of compounds, human recombinant adrenergic α2A receptor expressed in insect Sf9 cells (Uhlen, S. et al, J. Pharmacol. Exp. Ther. 271:1558, 1994) in a modified Tris-HCl buffer (50 mM Tris-HCl, pH 7.4, 12.5 mM MgCl2, 2 mM EDTA) was used. Compounds were incubated with 1 nM [^3H]MK-912 for 60 min at 25° C. MK912 is (2S-trans)-1,3,4,5′,6,6′,7,12b-octahydro-1′,3′-dimethyl-spiro[2H-benzofuro[2,3-a]quinolizine-2,4′(1′H)-pyrimidin]-2′(3′H)-one hydrochloride Non-specific binding was estimated in the presence of 10 μM WB-4101 (2-(2,6-Dimethoxyphenoxyethyl)aminoethyl-1,4-benzodioxane hydrochloride). Receptor proteins were filtered and washed, the filters were then counted to determine [^3H]MK-912 specifically bound. Compounds were screened at 1 μM or lower, using 1% DMSO as vehicle. Compounds were tested in this biochemical assay and percent inhibition of specific binding was determined. Biochemical assay results are presented as the percent inhibition of specific binding in Table 2.

[4] = target: T4, human recombinant adrenergic α2B receptor (Homo sapiens, UniProt P18089); test: Radioligand binding, adrenergic α2B receptor ([3H]Rauwolscine); conditions: 0.1 μM compound, CHO-K1 cells, read-out: Percentage inhibition of ligand binding, Adrenergic α2B
T4 construct: expressed in transfected cells; host or cells: CHO-K1
T4 sequence (P18089 1-450): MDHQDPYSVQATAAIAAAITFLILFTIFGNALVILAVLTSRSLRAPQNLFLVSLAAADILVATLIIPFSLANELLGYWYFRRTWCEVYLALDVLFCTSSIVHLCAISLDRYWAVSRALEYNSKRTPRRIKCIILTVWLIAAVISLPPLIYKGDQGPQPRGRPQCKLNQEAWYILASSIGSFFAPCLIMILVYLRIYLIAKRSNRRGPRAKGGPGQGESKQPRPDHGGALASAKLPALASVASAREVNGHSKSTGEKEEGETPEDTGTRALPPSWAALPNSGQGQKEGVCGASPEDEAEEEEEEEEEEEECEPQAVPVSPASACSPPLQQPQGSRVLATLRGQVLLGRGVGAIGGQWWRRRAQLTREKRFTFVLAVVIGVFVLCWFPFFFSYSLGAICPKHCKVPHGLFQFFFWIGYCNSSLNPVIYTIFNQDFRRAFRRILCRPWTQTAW
Procedure: To evaluate in radioligand binding assays the activity of compounds, human recombinant adrenergic α2B receptor expressed in Chinese hamster ovary (CHO) K1 cells (Uhlen, S. et al, Eur. J. Pharmacol. 343(1):93, 1998) in a modified Tris-HCl buffer (50 mM Tris-HCl, pH 7.4, 12.5 mM MgCl2, 1 mM EDTA, 0.2% BSA) was used. Compounds were incubated with 2.5 nM [^3H]Rauwolscine for 60 min at 25° C. Non-specific binding was estimated in the presence of 10 μM Prazosin. Receptor proteins were filtered and washed, the filters were then counted to determine [^3H]Rauwolscine specifically bound. Compounds were screened at 1 μM or lower, using 1% DMSO as vehicle. Compounds were tested in this biochemical assay and percent inhibition of specific binding was determined. Biochemical assay results are presented as the percent inhibition of specific binding in Table 2.

| Compound | inhibition at 0.1 µM [1] | inhibition at 0.1 µM [2] | inhibition at 0.1 µM [3] | inhibition at 0.1 µM [4] |
| --- | --- | --- | --- | --- |
| Cc1ccc2c(c1)c1c(n2-c2ccc3c(c2)CCN(C=O)C3)CCN(C)C1 [Compound No. 77, 6-(2,8-dimethyl-1,2,3,4-tetrahydro-pyrido[4,3-b]indol-5-yl)-3,4-dihydro-1H-isoquinoline-2-carbaldehyde] | 15% | 6% | 15% | 45% |
| Cc1cc(C)c2c(c1)c1c(n2-c2ccc3ncccc3c2)CCN(C)C1 [Compound 48] | 1% | -5% | 19% | 16% |
| Cc1ccc2c(c1)c1c(n2-c2cccc(-c3ccc(C)nc3)c2)CCN(C)C1 [Compound 60, 2,8-dimethyl-5-(3-(6-methylpyridin-3-yl)phenyl)-2,3,4,5-tetrahydro-1H-pyrido[4,3-b]indole] | 4% | 9% | 62% | 14% |
| Cc1ccc2c(c1)c1c(n2-c2cccc(-c3ccc(F)cc3)c2)CCN(C)C1 [Compound No. 61, 5-(4′-fluorophenyl-3-yl)-2,8-dimethyl-2,3,4,5-tetrahydro-1H-pyrido[4,3-b]indole] | 11% | 5% | 23% | 7% |
| Cc1ccc2c(c1)c1c(n2-c2ccoc2)CCN(C)C1 [Compound 15, 5-furan-3-yl-2,8-dimethyl-2,3,4,5-tetrahydro-1H-pyrido[4,3-b]indole] | 35% | 19% | 10% | 30% |
| Cc1ccc2c(c1)c1c(n2-c2cscc2-c2ccc(O)nc2)CCN(C)C1 [Compound 49] | 12% | 14% | -3% | 31% |
| Cc1ccc2c(c1)c1c(n2-c2ccccc2-c2ccc(O)nc2)CCN(C)C1 [Compound No. 80, 5-(2-(2,8-dimethyl-3,4-dihydro-1H-pyrido[4,3-b]indol-5(2H)-yl)phenyl)pyridin-2-ol] | 9% | 23% | 12% | 27% |
| Cc1ccc2c(c1)c1c(n2-c2ccc(-c3ccnn3C)cn2)CCN(C)C1 [Compound No. 146, 2,8-dimethyl-5-(5-(1-methyl-1H-pyrazol-5-yl)pyridin-2-yl)-2,3,4,5-tetrahydro-1H-pyrido[4,3-b]indole] | 70% | 79% | 26% | 54% |
| CNC(=O)c1ccc(-c2ccccc2-n2c3c(c4cc(C)ccc42)CN(C)CC3)cn1 [Compound No. 71, 5-(2-(2,8-dimethyl-3,4-dihydro-1H-pyrido[4,3-b]indol-5(2H)-yl)phenyl)-N-methylpicolinamide] | 66% | 87% | 11% | 89% |
| Cc1ccc2c(c1)c1c(n2-c2cccc(-c3ccnn3C)c2)CCN(C)C1 [Compound No. 66, 2,8-dimethyl-5-(3-(1-methyl-1H-pyrazol-5-yl)phenyl)-2,3,4,5-tetrahydro-1H-pyrido[4,3-b]indole] | 13% | 11% | 39% | 18% |
| Cc1ccc2c(c1)c1c(n2-c2ccccc2-c2cncc3ccccc23)CCN(C)C1 [Compound No. 87, 5-(2-(isoquinolin-4-yl)phenyl)-2,8-dimethyl-2,3,4,5-tetrahydro-1H-pyrido[4,3-b]indole] | 13% | 16% | 30% | 18% |
| CNC(=O)c1cccc(-c2cscc2-n2c3c(c4cc(C)ccc42)CN(C)CC3)c1 [Compound No. 154] | 46% | 70% | 20% | 42% |
| Cc1ccc2c(c1)c1c(n2-c2ccc(-c3cccc4ccccc34)cn2)CCN(C)C1 [Compound No. 141, 2,8-dimethyl-5-(5-(naphthalen-1-yl)pyridin-2-yl)-2,3,4,5-tetrahydro-1H-pyrido[4,3-b]indole] | 62% | 50% | 69% | 82% |
